In brackets after ≈: the same amount, converted by molar mass. Like-named read-outs stand apart in the source and are kept apart here.
Assays:
[1] = tested on: M. tuberculosis strain under expressing LepB (LepB-UE); assay: microbe, parasite or virus in culture; format: cell-based, Mycobacterium tuberculosis
[2] = tested on: M. tuberculosis wild-type strain; assay: MIC against wild-type M. tuberculosis; format: cell-based, Mycobacterium tuberculosis; conditions: for MIC: read-out: MIC Wild type
[3] = tested on: RAW 264.7 macrophages; assay: Cytotoxicity against infected macrophages; format: cell-based, murine; conditions: Mus musculus; infected RAW264:7 cells, 72 h; read-out: IC50 Macrophage
Procedure: Murine RAW 264.7 macrophages (ATCC TIB-71) were infected with M. tuberculosis DsRed (DREAM8) ([29]) as described at a multiplicity of infection of 1 for 24 h, washed, harvested, and dispensed into 384-well plates ([30]). Infected macrophages were exposed to compounds for 72 h; cell nuclei were stained with SYBR green I. Plates were imaged with an ImageXpress Micro High Content Screening System (Molecular Devices) using a ×4 objective and FITC and Texas Red channels. MetaXpress was used to determine the integrated intensity of bacteria or macrophages. […] Isoniazid and staurosporine controls (maximum inhibition) and dose responses were included on every plate.

[4] = tested on: HepG2 cells; assay: HepG2 cytotoxicity; format: cell-based, human; conditions: 3 days exposure, CellTiter-Glo
Procedure: HepG2 cells were used to measure eukaryotic cytotoxicity. Viability of HepG2 was measured using CellTiter-Glo reagent (Promega) after 3 days of exposure to compounds. […] Staurosporine controls (maximum inhibition) and a staurosporine dose response were included on every plate.

[5] = target: SPase activity in M. tuberculosis H37Rv cell membrane fractions (Mycobacterium tuberculosis, UniProt P9WKA1); assay: Inhibition of secretion (SPase activity) in membrane fractions; format: biochemical; conditions: fluorogenic peptide substrate 2 μM; 4 h, 37 °C
Chain of SPase activity in M. tuberculosis H37Rv cell membrane fractions (P9WKA1 whole entry): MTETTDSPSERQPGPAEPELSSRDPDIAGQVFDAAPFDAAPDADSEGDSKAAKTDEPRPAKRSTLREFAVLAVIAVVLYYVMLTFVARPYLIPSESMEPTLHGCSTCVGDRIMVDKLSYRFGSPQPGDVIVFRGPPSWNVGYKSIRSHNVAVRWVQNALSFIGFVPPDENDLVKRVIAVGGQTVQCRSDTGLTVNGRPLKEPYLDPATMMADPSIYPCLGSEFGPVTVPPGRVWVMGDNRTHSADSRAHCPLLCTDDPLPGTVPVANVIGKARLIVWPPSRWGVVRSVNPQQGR

[6] = Plasma protein binding (Rapid Equilibrium Dialysis); format: in vitro ADME, human
Procedure: Molecule fraction fraction Post-Assay
Table S5. Plasma protein binding
Protein binding was measured in human plasma using Rapid Equilibrium Dialysis (RED) devices (Pierce) according to the manufacturers’ instructions; 5 µM compounds in plasma were dialysed against PBS for 4 h at 37C. Compounds were detected by LC-MS/MS in plasma and PBS

[7] = Microsomal metabolic stability; conditions: human, microsomes, pH 7.4
Procedure: (§1) Permeability was measured across Caco-2 cells cultured in a Millipore 96-well Caco-2 plate. For apical to basolateral (A→B) permeability, 10 μM compound was added to the apical (A) side and amount of permeation was determined on the basolateral (B) side; for basolateral to apical (B→A) permeability, the compound was added to the B side and the amount of permeation was determine on the A side. Time points were taken at 2 h.
Table S3. Metabolic stability. Metabolic stability was measured using human liver microsomes. […]

[8] = tested on: Caco-2 cells; assay: Caco-2 permeability
Procedure: as §1
Table S2. Permeability. Permeability was measured using Caco-2 cells after 1 and 2 hours incubation with compound. (A→B) is Apical to Basolateral; (B→A) is Basolateral to Apical. Data is expressed as permeability (10-6 cm s-1). dQ/dt is rate of permeation, C0 is initial concentration […]
Article Duration direction value replicate replicate mean recovery

[9] = Mycobacterium tuberculosis, 120 h
[10] = Mycobacterium tuberculosis, 120 h, concentration required to inhibit growth by 90%, 5 days culture
[11] = concentration required to inhibit growth by 90%, 5 days culture

Molecule | MIC [1, 9] [µM] | MIC [2, 10] [µM] | IC50 ([4]; Homo sapiens, HepG2, 72 h) [µM] | further results
CCCCNC(=S)Nc1ncc(C)o1 [Molecule 22, 1-butyl-3-(5-methyloxazol-2-yl)thiourea] | 8 to 9 (≈ 1.71 to 1.92 µg/mL) | 10 (≈ 2.13 µg/mL) | 32 ± 19 | MIC LepB-UE [1]: 9.1 ± 0.4 µM (≈ 1.94 µg/mL); MIC Wild type [2, 11]: 10 ± 12 µM (≈ 2.13 µg/mL); IC50 [3]: 7.1 ± 1.5 µM
CCCCNC(=S)Nc1nc2ccc(Cl)cc2o1 [Molecule 33, 1-butyl-3-(6-chlorobenzo[d]oxazol-2-yl)thiourea] | 49 ± 6 (≈ 13.9 µg/mL) | > 200 | 32 ± 3 | IC50 [5]: > 200 µM
COc1ccc(NC(=S)Nc2nc3ccccc3s2)cc1 [Molecule 7] | > 200 | > 200 | > 100 | 
CCCCNC(=S)Nc1nc(C)c(C)s1 [Molecule 17, 1-butyl-3-(4,5-dimethylthiazol-2-yl)thiourea] | 112 ± 25 (≈ 27.3 µg/mL) | > 200 | > 100 | 
CCCCCCNc1nc2ccccc2s1 [Molecule 4] | < 100 | 125 (≈ 29.3 µg/mL) | 55 ± 8.5 | MIC LepB-UE [1]: 82 ± 16 µM (≈ 19.2 µg/mL); MIC Wild type [2, 11]: 125 ± 13 µM (≈ 29.3 µg/mL)
S=C(NCCc1ccccc1)Nc1nc2ccccc2s1 [Molecule 26, 1-(benzo[d]thiazol-2-yl)-3-phenethylthiourea] | 8 ± 3 (≈ 2.51 µg/mL) | > 200 | 8 ± 6 | IC50 [5]: > 200 µM; fraction unbound at 4 h, 5 µM ([6]; human, plasma, Mean plasma fraction Bound): 0.055; IC50 [3]: 1.4 ± 0.2 µM
COc1ccc(NC(=S)Nc2nccs2)cc1 [Molecule 8] |  | 27 (≈ 7.16 µg/mL) | 21 ± 19 | MIC Wild type [2, 11]: 27 ± 17 µM (≈ 7.16 µg/mL); IC50 [5]: > 200 µM
CCCCNC(=S)Nc1nc(C)c[nH]1 [Molecule 18, 1-butyl-3-(4-methyl-1H-imidazol-2-yl)thiourea] | 51 (≈ 10.8 µg/mL) | 44 (≈ 9.34 µg/mL) | 61 ± 4 | MIC LepB-UE [1]: 51 ± 1.0 µM (≈ 10.8 µg/mL); MIC Wild type [2, 11]: 44 ± 8.0 µM (≈ 9.34 µg/mL)
1-butyl-3-(5-methoxybenzo[d]oxazol-2-yl)thiourea [Molecule 35] |  |  |  | MIC [1]: >200 µM; MIC [2, 11]: >200 µM; IC50 [4]: > 100 µM
CCCCNC(=O)Nc1nc2ccccc2s1 [Molecule 5] | < 100 | > 200 | 39 ± 25 | MIC LepB-UE [1]: 61 ± 9.1 µM (≈ 15.2 µg/mL)
S=C(NCc1ccccc1)Nc1nc2ccccc2s1 [Molecule 6] |  | > 200 | 6 ± 0.1 | 
CC(C)CNC(=S)Nc1nc2ccccc2s1 [Molecule 28, 1-(benzo[d]thiazol-2-yl)-3-isobutylthiourea] | 12 to 21 (≈ 3.18 to 5.57 µg/mL) |  |  | MIC LepB-UE [1]: 21 ± 11 µM (≈ 5.57 µg/mL)
CCCCNC(=S)Nc1nccc(C)n1 [Molecule 20, 1-butyl-3-(4-methylpyrimidin-2-yl)thiourea] | > 200 | > 200 | > 100 | 
COc1ccc2c(c1)[C@]13CCCC[C@@H]1[C@H](C2)N(C)CC3 [Dextromethorphan, dextromethorphan, reference compound] |  |  |  | half-life at 1 µM [7]: 1.97 h; microsomal CLint at 1 µM [7]: 19.5 µL/min/mg
CCCCNC(=S)Nc1nc2c(Cl)cccc2s1 [Molecule 13, 1-butyl-3-(4-chlorobenzo[d]thiazol-2-yl)thiourea] | 7.9 (≈ 2.37 µg/mL) | > 200 | > 100 | MIC LepB-UE [1]: 7.9 ± 0.6 µM (≈ 2.37 µg/mL); IC50 [5]: > 200 µM; IC50 [3]: 12 ± 2.8 µM
CCCCSC(=S)Nc1nc2ccccc2s1 [Molecule 25, butyl benzo[d]thiazol-2-ylcarbamodithioate] | 101 ± 27 (≈ 28.5 µg/mL) | 90 ± 20 (≈ 25.4 µg/mL) | 29 ± 1 | 

Molecule | MIC [1, 9] [µM] | MIC [2, 10] [µM] | IC50 ([4]; Homo sapiens, HepG2, 72 h) [µM] | further results
Cc1ccc(C(=O)Nc2nc3ccccc3s2)cc1 [Molecule 3] | 140 (≈ 37.6 µg/mL) | > 200 | > 100 | 
CCCCNC(=S)Nc1nc(-c2ccccc2)co1 [Molecule 23, 1-butyl-3-(4-phenyloxazol-2-yl)thiourea] | 10 to 11 (≈ 2.75 to 3.03 µg/mL) | 10 to 11 (≈ 2.75 to 3.03 µg/mL) | 32 ± 4 | MIC LepB-UE [1]: 10 ± 2.0 µM (≈ 2.75 µg/mL); MIC Wild type [2, 11]: 11 ± 4.0 µM (≈ 3.03 µg/mL); IC50 [5]: > 200 µM; IC50 [3]: 30 ± 6.4 µM
CC(=O)CC(c1ccccc1)c1c(O)c2ccccc2oc1=O (stereo not drawn) [Warfarin, reference compound] |  |  |  | recovery at 4 h, 5 µM ([6]; human plasma, RED device, read-out: Post-Assay Recovery): 88.6%; fraction unbound ([6]; human, plasma, human plasma, 5 µM, dialysed against PBS 4 h at 37C, read-out: Mean plasma fraction Bound (converted)): 0.007; fraction unbound ([6]; human, plasma, human plasma, 5 µM, dialysed against PBS 4 h at 37C, read-out: Mean plasma fraction Unbound Fuplasma): 0.0067
CCCCNC(=S)Nc1nc(C)cs1 [Molecule 16, 1-butyl-3-(4-methylthiazol-2-yl)thiourea] | 85 ± 17 (≈ 19.5 µg/mL) | 59 ± 1 (≈ 13.5 µg/mL) | > 100 | IC50 [5]: > 200 µM
CCCCNC(=S)Nc1ccc2scnc2c1 [Molecule 30, 1-(benzo[d]thiazol-5-yl)-3-butylthiourea] | 49 ± 15 (≈ 13 µg/mL) | 73 ± 12 (≈ 19.4 µg/mL) | > 100 | 
CCCCNC(=S)Nc1ccnn1C [Molecule 19, 1-butyl-3-(1-methyl-1H-pyrazol-5-yl)thiourea] | > 200 | > 200 | > 100 | IC50 [5]: > 200 µM
CCCCNC(=S)Nc1nc2ccccc2[nH]1 [Molecule 11, 1-(benzo[d]imidazol-2-yl)-3-butylthiourea] | 29 ± 2.1 (≈ 7.2 µg/mL) | 120 ± 10 (≈ 29.8 µg/mL) | 6 ± 0.1 | IC50 [5]: > 200 µM
CCCCNC(=S)Nc1nc2cccc(Cl)c2o1 [Molecule 34, 1-butyl-3-(7-chlorobenzo[d]oxazol-2-yl)thiourea] | 53 ± 1 (≈ 15 µg/mL) | > 200 | 13 ± 3 | IC50 [3]: 5.8 ± 0.4 µM
CCCCNC(=S)Nc1nc2cc(Cl)ccc2o1 [Molecule 32, 1-butyl-3-(5-chlorobenzo[d]oxazol-2-yl) thiourea] | 68 ± 3 (≈ 19.3 µg/mL) | 84 ± 13 (≈ 23.8 µg/mL) | 9 ± 3 | 
CC(C)NC[C@H](O)COc1cccc2ccccc12 (racemic) [Propanolol, propanolol, reference compound] |  |  |  | Mean plasma fraction Unbound Fuplasma ([6]; human plasma, 5 µM, dialysed against PBS 4 h at 37C): 28.00%; Post-Assay Recovery ([6]; human plasma, RED device): 89.4%; Efflux ratio (Re) ([8]; Papp(B→A)/Papp(A→B)): 1.5; Mean A→B Papp ([8]; apical to basolateral, 10 μM compound, 2 h): 20 10^−6 cm/s; Mean B→A Papp ([8]; basolateral to apical, 10 μM compound, 2 h): 30 10^−6 cm/s
c1ccc2scnc2c1 [Molecule 10] | > 100 | > 200 | 7.6 ± 6.2 | 
CCCCN(C)C(=S)Nc1nc2ccccc2s1 [Molecule 27, 3-(benzo[d]thiazol-2-yl)-1-butyl-1-methylthiourea] | 155 to 195 (≈ 43.3 to 54.5 µg/mL) | 195 ± 7 (≈ 54.5 µg/mL) | 5.6 | MIC LepB-UE [1]: 155 ± 36 µM (≈ 43.3 µg/mL); MIC [2, 9]: 155 to 195 µM (≈ 43.3 to 54.5 µg/mL); IC50 [5]: > 200 µM; IC50 [4]: 6 ± 5 µM
CCCCNC(=S)NC1=NCCS1 [Molecule 15, 1-butyl-3-(4,5-dihydrothiazol-2-yl)thiourea] | 160 (≈ 34.8 µg/mL) | 170 (≈ 37 µg/mL) | 75 | MIC LepB-UE [1]: 160 ± 1.0 µM (≈ 34.8 µg/mL); MIC Wild type [2, 11]: 170 ± 1.0 µM (≈ 37 µg/mL); IC50 [4]: > 100 µM
CCCCCC(=O)Nc1nc2ccccc2s1 [Molecule 2] | > 200 | > 200 | 74 ± 13 | 
CCCCNC(=S)Nc1ccccn1 [Molecule 9] | 100 (≈ 20.9 µg/mL) | > 200 | 65 ± 50 | 

Source: paper PMC9927457 (Microbiology Spectrum, 2023)
